The values below come from patent US20120190752A1, “EXO-S-MECAMYLAMINE METHOD, USE, AND COMPOUND FOR TREATMENT” (Targacept Inc., priority 2009, published 2012).

The subject of this assay is subjects with major depressive disorder (MDD) who were inadequate responders to citalopram. The experiment in a line: HAMD Anxiety/Somatization Factor, Phase 2b add-on trial. The assay is classed as in vivo, human. The procedure: In more detail, a multi-center double-blind, randomized, placebo-controlled, parallel group, flexible dose titration study of TC-5214 as adjunctive therapy in subjects with major depressive disorder (MDD) who were inadequate responders to citalopram was conducted in centers in the US and India. The study consisted of a screening period, baseline/washout period, open-label phase, double-blind phase, and a follow-up visit. Subject participation in the study could continue for up to 16 weeks of treatment. Following a washout period of up to 28 days for other antidepressants, subjects with MDD and a MADRS total score >/=28 and a Clinical Global Impression-Severity (CGI-S) score >/=4 were enrolled on Day 1 into an open-label citalopram-only phase of the study. This phase lasted 8 weeks, with citalopram (CIT) dose increased from a once-daily dose of 20 mg (Day 1 through Week 4) to 40 mg (Week 4 through Week 8). A total of 579 subjects entered the open-label citalopram phase. At Week 8, subjects who tolerated 40 mg CIT, but whose MADRS score was reduced <50% from baseline and no lower than 17, and CGI-S≧4, were considered inadequate responders. These subjects (n=270) were randomized in a double-blind fashion to receive either placebo or TC-5214-23 as add-on therapy to continued CIT. The double-blind phase of the study also lasted 8 weeks (Week 8 to Week 16). Study drug, TC-5214-23 or placebo, was started at 2 mg daily (1 mg twice per day [BID] dosing), added on to continuing CIT (40 mg PO qd). After 2 weeks of treatment, the dose of TC-5214 could be increased to 4 mg (2 mg BID) or continued unchanged, with up-titration based upon good tolerability and inadequate therapeutic response. After a further 2 weeks, the dose of TC-5214 could be increased again to 8 mg (4 mg BID) if judged appropriate by the investigator, based upon good tolerability and inadequate therapeutic response. At any time during the double-blind phase of the study, placebo or TC-5214-23 could be reduced to the previous dose level following the emergence of unacceptable adverse events (AEs). […] At this follow-up, any signs or symptoms of relapse were evaluated. If a subject was prematurely discontinued from the study between Week 8 and Week 16 for any reason, the investigator was to make every effort to perform all evaluations as per protocol, assuming the subject had reached the end of the double-blind add-on treatment phase. These evaluations were to be made as soon as possible and within 2 weeks of discontinuation. […] There was no meaningful difference in results as a function of age, gender, site, or smoking status. With regard to efficacy endpoints, the following tables present efficacy used in the ITT (Intent-to-Treat) and PP (Per Protocol) populations unless otherwise specific. The primary inference was based upon Week 16 visit using the ITT population. Change from baseline was obtained by subtracting the baseline values from the individual on-treatment values. Change from Week 16 was obtained by subtracting the Week 16 values from the individual follow-up visit (Week 18/19) values. If either the baseline or Week 16 or on-treatment or follow-up value was missing, the change from baseline or Week 16 value was also set to missing. To account for missing data, the last observation carry forward (LOCF) method was used for the ITT and PP populations. Thus, the last available on-therapy observation for a subject, including the observation at premature discontinuation, was used to estimate subsequent missing data points. For efficacy, baseline data were collected at Week 8 in the double-blind augmentation phase electronic case report form pages. Analysis for the secondary endpoints were performed on both the ITT and PP populations. The secondary endpoints were as follows in Table 5. [table]

[1] abbreviates: ITT, Double Blind Week 16 LOCF (change from Week 8).
The mark [2] stands for this setting: ITT, Double Blind Week 18 LOCF (Follow-up), change from Week 16.
[3] abbreviates: PP, Double Blind Week 16 LOCF (change from Week 8).
Where [4] appears, read: PP, Double Blind Week 18 LOCF (Follow-up), change from Week 16.

Each structure is given as a SMILES string.

For the compound `CNC1(C)C2CCC(C2)C1(C)C` (stereo in doubt) [TC-5214, (S)—N,2,3,3-tetramethylnorbornan-2-amine], under “ITT and PP populations, result in words”, the “HAMD anxiety/somatization subscale score change from baseline compared with placebo” value is “statistically significant decreases (improvements)”. Besides, the “HAMD anxiety/somatization Mean Difference between TC-5214 and Placebo” value reads like this: under setting [1], 1.93; under setting [2], −0.00; under setting [3], 1.92; under setting [4], 0.01. Besides, the “HAMD anxiety/somatization subscale Adjusted Mean change” value is, setting by setting: under setting [1], −4.58; under setting [2], −0.14; under setting [3], −4.93; under setting [4], −0.16.
